From patent US9668482B1, “Fused heterocyclic compound and pest control application thereof” (Sumitomo Chemical Company, Limited, priority 2014, dated 2017)

Columns and labels:
Type in all cases: in vivo
[1] = tested on: German cockroach (Blattella germanica); test: Test Example 9: German cockroach, treated filter paper with sucrose bait; conditions: 500 ppm, 0.7 mL on filter paper, male adults, after 6 days
Method: Each of the present compounds 1 to 3, 5, 7, and 13 was made to a formulation according to the Formulation example 5 and was then diluted with water so that the active ingredient concentration was set to 500 ppm to prepare the diluted solution. The bottom of the polyethylene cup having 5.5 cm diameter was matted with the same size of a filter paper, and 0.7 mL of the diluted solution was added dropwise to the filter paper and 30 mg sucrose as bait was placed in the cup uniformly. Two (2) heads of male adult German cockroach (Blattella germanica) were released into the polyethylene cup and the cup was covered with the lid. After 6 days, the life and death of German cockroach was examined and the number of died insects was counted and the mortality of insects was calculated by the following equation. Mortality of insects (%)=(Number of dead insects/Number of tested insects)×100

[2] = tested on: housefly (Musca domestica); test: Test Example 8: housefly, treated filter paper with sucrose bait; conditions: 500 ppm, 0.7 mL on filter paper, female adults, after 24 hours
Method: Each of the present compounds 1 to 3, 5, 7, 8, 11, 13 to 16, 21 and 22 was made to a formulation according to the Formulation example 5 and was then diluted with water so that the active ingredient concentration was set to 500 ppm to prepare the diluted solution. The bottom of the polyethylene cup having 5.5 cm diameter was matted with the same size of a filter paper, and 0.7 mL of the diluted solution was added dropwise to the filter paper and 30 mg sucrose as bait was placed in the cup uniformly. Ten (10) heads of female adult housefly (Musca domestica) were released into the polyethylene cup and the cup was covered with the lid. After 24 hours, the life and death of housefly was examined and the number of died insects was counted and the mortality of insects was calculated by the following equation. Mortality of insects (%)=(Number of dead insects/Number of tested insects)×100

[3] = tested on: American cockroaches (Periplaneta americana); test: Test Example 14: American cockroach, topical application, comparison with compound 112; conditions: 1.0 μL topical, 7 days after treatment
Method: The compound 112 (hereinafter, referred to as “compound 112”), described in Table 40 of WO 2013/018928 pamphlet, and the present compound 1 were dissolved in acetone and then the acetone solutions of the designated concentration were prepared.
(§1) A droplet (1.0 μL) of the solution was topically applied onto the ventral prothorax of each female American cockroaches (Periplaneta americana). Then, the treated individuals were transferred to a clean polyethylene cup (bottom diameter: 12 cm, height: 10 cm) with some food and water. Each treatment consisted of 2 replications of 5 roaches/polyethylene cup. The mortality was determined on 7 days after treatment at 25° C. Mortality of insects (%)=(Number of dead insects/Number of tested insects)×100

[4] = tested on: American cockroaches (Periplaneta americana); test: Test Example 13: American cockroach, topical application of 10% w/v acetone solution; conditions: 1.0 μL topical on ventral prothorax, females, 7 days, 25° C.
Method: The present compounds 1 and 2 were dissolved in acetone and then the 10% w/v acetone solutions were prepared.
as §1, with “cockroaches/polyethylene” for “roaches/polyethylene”

CCS(=O)(=O)c1ccc(-n2cnc(SC)n2)nc1-c1nc2cc(C(F)(F)F)cnc2n1C [compound 7]
Mortality of insects [1]: 100%
Mortality of insects [2]: 100%

CCS(=O)(=O)c1cc(-c2ncccn2)cnc1-c1nc2cc(C(F)(F)F)cnc2n1C [Compound 112]
Morality (%) ([3]; concentration 2 w/v%): 70%
Morality (%) ([3]; concentration 4 w/v%): 100%

CCS(=O)(=O)c1ccc(-n2cnc(S(C)(=O)=O)n2)nc1-c1nc2cc(C(F)(F)F)cnc2n1C [compound 8]
Mortality of insects [2]: 100%

CCSc1ccc(-n2cncn2)nc1-c1nc2cc(C(F)(F)F)cnc2n1C [compound 13]
Mortality of insects [1]: 100%

CCS(=O)(=O)c1ccc(-n2cnc(Cl)n2)nc1-c1nc2cc(C(F)(F)F)cnc2n1C [compound 2]
Mortality of insects [4]: 100%

CCS(=O)(=O)c1ccc(-n2cnc(C(=O)OC)n2)nc1-c1nc2cc(C(F)(F)F)cnc2n1C [compound 11]
Mortality of insects [2]: 100%

CCS(=O)(=O)c1ccc(-n2cnc(C(F)(F)F)n2)nc1-c1nc2cc(C(F)(F)F)cnc2n1C [compound 5]
Mortality of insects [1]: 100%
Mortality of insects [2]: 100%

CC[S+]([O-])c1ccc(-n2cnc(SC)n2)nc1-c1nc2cc(C(F)(F)F)cnc2n1C (stereo not drawn) [compound 22]
Mortality of insects [2]: 100%

CC[S+]([O-])c1ccc(-n2cnc(C(F)(F)F)n2)nc1-c1nc2cc(C(F)(F)F)cnc2n1C (stereo not drawn) [compound 21]
Mortality of insects [2]: 100%
